In one assay the target is HIV integrase (Human immunodeficiency virus type 1 group M subtype B, UniProt P04585). The experiment in a line: Strand Transfer Assay for HIV Integrase (microtiter assay for ligation of processed donor (HIV) DNA to unspecific, nicked host DNA). Particulars: inhibition of strand transfer by HIV integrase; inhibitor 0.75 to 100 μM. Format: biochemical. Here is the method:
Strand Transfer Assay for HIV Integrase
A microtiter assay for ligation of processed donor (HIV) DNA to unspecific, nicked host DNA was conducted according to Hazuda, D. J. et al., Nucl. Acids, Res. 22, 1121 (1994), herein incorporated by reference for these purposes. To assay inhibition of such strand transfer by HIV integrase, the reaction was conducted with inhibition having various concentrations in the range of 0.75 to 100 μM. Representative results follow.

For another assay, the target named is T1, HIV-1 integrase (Human immunodeficiency virus type 1 group M subtype B, UniProt P04585).
T1 construct: HIV long terminal repeat terminus by HIV-1 integrase
Kind of assay: HIV Integrase Substrate Cleavage (trimming of the 3' end of HIV long terminal repeat terminus by HIV-1 integrase). The class given is biochemical. The settings on record: inhibition of HIV integrase substrate cleavage; inhibitor 0.75 to 100 μM. Here is the method: HIV Integrase Substrate Cleavage
An assay for trimming of the 3' and of HIV long terminal repeat terminus by HIV-1 integrase was conducted according to LaFemina, R. L. et al., J. Virol 10, 5624 (1991), herein incorporated by reference for these purposes. To assay inhibition of HIV integrase substrate cleavage, the reaction was conducted with inhibitor having various concentrations in the range of 0.75 to 100 μM.

This passage reports IC50 results from patent US6110716A, “HIV integrase inhibitors” (Merck & Co., Inc., priority 1998, dated 2000).

With `Cc1oc2cc3c(-c4c(O)cc(O)c5c(O)c6c(cc45)O[C@@H](C)[C@@H](C)C6=O)c(O)cc(O)c3c(O)c2c(=O)c1C` (relative stereo) [Compound D], the half-maximal inhibitory concentration (IC50) was found to be 4 µM against HIV integrase and 1 µM at HIV-1 integrase.

On to `CC1Oc2cc3c(-c4c(O)cc(O)c5c(O)c6c(cc45)OC(C)C(C)C6=O)c(O)cc(O)c3c(O)c2OC(=O)C1C` (single isomer, unassigned) [Compound C], for which the half-inhibitory concentration (IC50) against HIV integrase is 9 µM; at HIV-1 integrase, 3 µM.

Take `CC1Oc2cc3c(-c4c(O)cc(O)c5c(O)c6c(cc45)OC(C)C(C)C6=O)c(O)cc(O)c3c(O)c2C(=O)C1C` (stereo not drawn) [Compound A]: the IC50 was found to be 12 µM against HIV integrase and 2 µM against HIV-1 integrase.

Compound `COc1cc(O)c2c(OC)c3c(cc2c1-c1c(OC)cc(OC)c2c(OC)c4c(cc12)OC(C)C(C)C4=O)OC(C)C(C)C3=O` (stereo not drawn) [Compound F] gave an IC50 against HIV-1 integrase of 40 µM.

`COc1cc(OC)c2c(OC)c3c(cc2c1-c1c(OC)cc(OC)c2c(OC)c4c(cc12)OC(C)C(C)C4=O)OC(C)C(C)C3=O` (stereo not drawn) [Compound G] yielded an IC50 against HIV-1 integrase of 60 µM.

Compound `CC(=O)Oc1cc(OC(C)=O)c2c(OC(C)=O)c3c(cc2c1-c1c(OC(C)=O)cc(OC(C)=O)c2c(OC(C)=O)c4c(cc12)OC(C)C(C)C4=O)OC(C)C(C)C3=O` (stereo not drawn) [E] gave a half-maximal inhibitory concentration (IC50) at HIV-1 integrase of 50 µM.
